# Data: patent US9273057B2 (Bristol-Myers Squibb Company, priority 2012, dated 2016)
# Counter-ions that a name gives are not always drawn.
# Biological target: CK2A1 (CK2α/β) (Homo sapiens, UniProt P68400)
# Experiment: CK2 kinase assay, CK2A1 (CK2α/β)
# Format: biochemical
# Settings: Table A; read-out: CK2A1 (CK2α/β) (IC50)
# Chain of CK2A1 (CK2α/β) (P68400 whole entry, species assumed): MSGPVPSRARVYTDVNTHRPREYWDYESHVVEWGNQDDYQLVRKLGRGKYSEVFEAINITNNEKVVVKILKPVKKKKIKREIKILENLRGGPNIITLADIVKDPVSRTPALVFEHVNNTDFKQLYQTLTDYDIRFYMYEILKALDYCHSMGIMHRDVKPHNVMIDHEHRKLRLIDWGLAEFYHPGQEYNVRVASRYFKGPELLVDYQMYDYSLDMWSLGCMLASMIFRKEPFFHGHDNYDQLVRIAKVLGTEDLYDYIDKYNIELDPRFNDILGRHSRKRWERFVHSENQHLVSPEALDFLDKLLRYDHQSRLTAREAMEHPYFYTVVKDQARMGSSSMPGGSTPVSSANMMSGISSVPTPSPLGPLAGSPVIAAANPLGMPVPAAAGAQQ
# Chain of CK2A1 (CK2α/β) (P67870 whole entry partner, species assumed): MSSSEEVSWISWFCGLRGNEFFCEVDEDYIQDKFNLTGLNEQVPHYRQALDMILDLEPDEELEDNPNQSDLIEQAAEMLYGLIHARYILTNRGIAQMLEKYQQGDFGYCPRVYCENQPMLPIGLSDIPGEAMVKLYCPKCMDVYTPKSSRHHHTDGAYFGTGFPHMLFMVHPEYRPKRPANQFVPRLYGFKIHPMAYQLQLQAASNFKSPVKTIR
row,SMILES,IC50 [nM]
1,"N#Cc1cc(Nc2nc(NC3CC3)c3ncc(C#N)n3n2)c(Cl)c(N2CCN(CC3(O)COC3)CC2)c1 [Example 580, 2-[(2-chloro-5-cyano-3-{4-[(3-hydroxyoxetan-3-yl)methyl]piperazin-1-yl}phenyl)amino]-4-(cyclopropylamino)imidazo [2,1-f][1,2,4]triazine-7-carbonitrile]",3.2
2,"N#Cc1cc(Nc2nc(NC3CC3)c3ncc(C#N)n3n2)c(Cl)c(N2CCN(CCO)CC2)c1 [Example 590, 2-({2-chloro-5-cyano-3-[4-(2-hydroxyethyl)piperazin-1-yl]phenyl}amino)-4-(cyclopropylamino)imidazo [2,1-f][1,2,4]triazine-7-carbonitrile]",1.83
3,"N#Cc1cc(Nc2nc(NC3CC3)c3ncc(C#N)n3n2)c(Cl)c(N2CCC3C(CCN3C[C@@H](O)CF)C2)c1 (stereo partly drawn) [Example 448, 2-((2-chloro-5-cyano-3-(1-((R)-3-fluoro-2-hydroxypropyl)hexahydro-1H-pyrrolo[3,2-c]pyridin-5(6H)-yl)phenyl)amino)-4-(cyclopropylamino)imidazo[2,1-f][1,2,4]triazine-7-carbonitrile]",0.88
4,"COCCC(=O)N1CCN(c2cc(C#N)cc(Nc3nc(NC4CC4)c4ncc(C#N)n4n3)c2Cl)CC1 [Example 87, 2-((2-chloro-5-cyano-3-(4-(3-methoxypropanoyl)-1-piperazinyl)phenyl)amino)-4-(cyclopropylamino) imidazo[2,1-f][1,2,4] triazine-7-carbonitrile]",0.76
5,"N#Cc1cc(Nc2nc(NC3CC3)c3ncc(C#N)n3n2)c(Cl)c(N2CCC(C3COC3)CC2)c1 [Example 525, 2-((2-chloro-5-cyano-3-(4-(oxetan-3-yl)piperidin-1-yl)phenyl)amino)-4-(cyclopropylamino)imidazo[2,1-f][1,2,4]triazine-7-carbonitrile]",3.2
6,"COC(=O)N[C@H]1CN(c2cc(C#N)cc(Nc3nc(NC4CC4)c4ncc(C#N)n4n3)c2Cl)C[C@H]1OC [Example 14, methyl ((3S,4R)-1-(2-chloro-5-cyano-3-((7-cyano-4-(cyclopropylamino)imidazo [2,1-f][1,2,4]triazin-2-yl)amino)phenyl)-4-methoxy-3-pyrrolidinyl)carbamate]",0.7
7,"CN1CCN(C(=O)N[C@@H]2CCN(c3cc(C#N)cc(Nc4nc(NC5CC5)c5ncc(C#N)n5n4)c3Cl)C[C@H]2O)CC1 (racemic) [Example 182, (+/−)-N-((3R,4R)-1-(2-chloro-5-cyano-3-((7-cyano-4-(cyclopropylamino)imidazo[2,1-f][1,2,4]triazin-2-yl)amino)phenyl)-3-hydroxypiperidin-4-yl)-4-methylpiperazine-1-carboxamide]",0.66
8,"N#Cc1cc(Nc2nc(NC3CC3)c3ncc(C#N)n3n2)c(Cl)c(N2CC[C@@H](NC(=O)N3CCOCC3)[C@H](O)C2)c1 (racemic) [Example 181, (+/−)-N-((3R,4R)-1-(2-chloro-5-cyano-3-((7-cyano-4-(cyclopropylamino)imidazo[2,1-f][1,2,4]triazin-2-yl)amino)phenyl)-3-hydroxypiperidin-4-yl)morpholine-4-carboxamide]",0.88
9,"CCNc1nc(Nc2cc(C#N)cc(N3CC[C@@H](NC(=O)OC)[C@H](N(C)[C@@H](C)C(N)=O)C3)c2Cl)nn2c(C#N)cnc12 [Example 768, methyl N-[(3R,4R)-3-{[(1S)-1-carbamoylethyl](methyl)amino}-1-(2-chloro-5-cyano-3-{[7-cyano-4-(ethylamino)imidazo[2,1-f] [1,2,4]triazin-2-yl]amino}phenyl)piperidin-4-yl] carbamate]",4
10,"CN1CCC(N2CCN(c3cc(C#N)cc(Nc4nc(NC5CC5)c5ncc(C#N)n5n4)c3Cl)CC2)CC1 [Example 15, 2-((2-chloro-5-cyano-3-(4-(1-methyl-4-piperidinyl)-1-piperazinyl)phenyl)amino)-4-(cyclopropylamino)imidazo [2,1-f][1,2,4]triazine-7-carbonitrile]",1.98
11,"CN1CCOC(c2cc(C#N)cc(Nc3nc(NC4CC4)c4ncc(C#N)n4n3)c2Cl)C1 (racemic) [Example 694, (+/−)-2-((2-chloro-5-cyano-3-(4-methylmorpholin-2-yl)phenyl)amino)-4-(cyclopropylamino)imidazo[2,1-f][1,2,4]triazine-7-carbonitrile]",1.48
12,"N#Cc1cc(Nc2nc(NC3CC3)c3ncc(C#N)n3n2)c(Cl)c(N2CCN(CCC(F)F)CC2)c1 [Example 595, 2-({2-chloro-5-cyano-3-[4-(3,3-difluoropropyl)piperazin-1-yl]phenyl}amino)-4-(cyclopropylamino)imidazo [2,1-f][1,2,4]triazine-7-carbonitrile]",1.44
13,"CC(C)N(C1CCN(c2cc(C#N)cc(Nc3nc(NC4CC4)c4ncc(C#N)n4n3)c2Cl)CC1)C1CC(=O)N(C)C1 (stereo not drawn) [Example 716, 2-[(2-chloro-5-cyano-3-{4-[(1-methyl-5-oxopyrrolidin-3-yl)(propan-2-yl)amino]piperidin-1-yl}phenyl)amino]-4-(cyclopropylamino)imidazo [2,1-f][1,2,4]triazine-7-carbonitrile]",32.6
14,CS(=O)(=O)N1CC(N2CCN(c3cc(C#N)cc(Nc4nc(NC5CC5)c5ncc(C#N)n5n4)c3Cl)CC2)C1 [Example 73],0.74
15,"COC(CO)CNC1CN(c2cc(C(F)F)cc(Nc3nc(NC4CC4)c4ncc(C#N)n4n3)c2Cl)C1 (racemic) [Example 262, (+/−) 2-((2-chloro-5-(difluoromethyl)-3-(3-((3-hydroxy-2-methoxypropyl)amino)-1-azetidinyl)phenyl)amino)-4-(cyclopropylamino)imidazo[2,1-f][1,2,4]triazine-7-carbonitrile]",5
16,"N#Cc1cc(Nc2nc(NC3CC3)c3ncc(C#N)n3n2)c(Cl)c(N2CCC(NC3CCOCC3)CC2)c1 [Example 125, 2-((2-chloro-5-cyano-3-(4-(tetrahydro-2H-pyran-4-ylamino)-1-piperidinyl)phenyl)amino)-4-(cyclopropylamino)imidazo [2,1-f][1,2,4]triazine-7-carbonitrile]",0.75
17,"N#Cc1cc(Nc2nc(NC3CC3)c3ncc(C#N)n3n2)c(Cl)c(N2CCN(C3CN(CC(O)CF)C3)CC2)c1 (stereo not drawn) [Example 614, 2-[(2-chloro-5-cyano-3-{4-[1-(3-fluoro-2-hydroxypropyl)azetidin-3-yl]piperazin-1-yl}phenyl)amino]-4-(cyclopropylamino)imidazo [2,1-f][1,2,4]triazine-7-carbonitrile]",2.5
18,"N#Cc1cc(Nc2nc(NC3CC3)c3ncc(C#N)n3n2)c(Cl)c(N2C[C@@H](O)[C@H](N3CCOCC3)C2)c1 [Example 307, 2-((2-chloro-5-cyano-3-((3R,4R)-3-hydroxy-4-(4-morpholinyl)-1-pyrrolidinyl)phenyl)amino)-4-(cyclopropylamino)imidazo[2,1-f][1,2,4]triazine-7-carbonitrile]",0.88
19,"CN1CCN(C2CN(c3cc(C#N)cc(Nc4nc(NC5CC5)c5ncc(C#N)n5n4)c3Cl)C2)CC1=O [Example 156, 2-((2-chloro-5-cyano-3-(3-(4-methyl-3-oxo-1-piperazinyl)-1-azetidinyl)phenyl)amino)-4-(cyclopropylamino)imidazo [2,1-f][1,2,4]triazine-7-carbonitrile]",0.36
20,"N#Cc1cc(Nc2nc(NC3CC3)c3ncc(C#N)n3n2)c(Cl)c(N2CC[C@@H](NC3COC3)[C@H](O)C2)c1 (racemic) [Example 301, (+/−)2-((2-chloro-5-cyano-3-((3R,4R)-3-hydroxy-4-(oxetan-3-ylamino)piperidin-1-yl)phenyl)amino)-4-(cyclopropylamino)imidazo[2,1-f][1,2,4]triazine-7-carbonitrile, HCl]",0.72
21,"CCNc1nc(Nc2cc(C#N)cc(N3CCN(C4COC4)CC3)c2F)nn2c(C#N)cnc12 [Example 556, 2-((5-cyano-2-fluoro-3-(4-(oxetan-3-yl)piperazin-1-yl)phenyl)amino)-4-(ethylamino)imidazo[2,1-f][1,2,4]triazine-7-carbonitrile]",3.68
22,"N#Cc1cc(Nc2nc(NC3CC3)c3ncc(C#N)n3n2)c(Cl)c(N2CCC(NCC3CC3)CC2)c1 [Example 136, 2-((2-chloro-5-cyano-3-(4-((cyclopropylmethyl)amino)-1-piperidinyl)phenyl)amino)-4-(cyclopropylamino)imidazo [2,1-f][1,2,4]triazine-7-carbonitrile]",22
23,"COCCOCC(=O)N1CCN(c2cc(C#N)cc(Nc3nc(NC4CC4)c4ncc(C#N)n4n3)c2Cl)CC1 [Example 88, 2-((2-chloro-5-cyano-3-(4-((2-methoxyethoxy)acetyl)-1-piperazinyl)phenyl)amino)-4-(cyclopropylamino) imidazo[2,1-f][1,2,4] triazine-7-carbonitrile]",0.6
24,"CC(Cc1cc(Cl)c(Nc2nc(NC3CC3)c3ncc(C#N)n3n2)cc1C#N)CN1CCOCC1 (stereo not drawn) [Example 721, 2-({2-chloro-5-cyano-4-[2-(morpholin-4-ylmethyl)propyl]phenyl}amino)-4-(cyclopropylamino)imidazo [2,1-f][1,2,4]triazine-7-carbonitrile]",1.35
25,"COC(=O)N[C@H]1C[C@@H](O)CN(c2cc(C#N)cc(Nc3nc(NC4CC4)c4ncc(C#N)n4n3)c2Cl)C1 [Example 295, methyl ((3S,5R)-1-(2-chloro-5-cyano-3-((7-cyano-4-(cyclopropylamino)imidazo[2,1-f][1,2,4]triazin-2-yl)amino)phenyl)-5-hydroxy-3-piperidinyl)carbamate]",1.21
26,"N#Cc1cc(Nc2nc(NC3CC3)c3ncc(C#N)n3n2)c(Cl)c(N2CCN(C3COC3)C(CF)C2)c1 (racemic) [Example 312, (+/−)2-((2-chloro-5-cyano-3-(3-(fluoromethyl)-4-(oxetan-3-yl)piperazin-1-yl)phenyl)amino)-4-(cyclopropylamino)imidazo[2,1-f][1,2,4]triazine-7-carbonitrile]",0.37
27,"CC(C)OC(=O)N1CC(N2CCN(c3cc(C#N)cc(Nc4nc(NC5CC5)c5ncc(C#N)n5n4)c3Cl)CC2)C1 [Example 518, propan-2-yl 3-[4-(2-chloro-5-cyano-3-{[7-cyano-4-(cyclopropylamino)imidazo[2,1-f][1,2,4]triazin-2-yl]amino}phenyl)piperazin-1-yl]azetidine-1-carboxylate]",10.3
